pIC50: −log10 of the molar value.
Tests used:
Cholinesterase = Cholinesterase (Equus caballus, UniProt P81908); assay: Inhibition of equine serum BuChE using butyrylthiocholine iodide as substrate preincubated for 5 mins followed by substrate addition and measured after 2 mins by Ellman's method; type: cell-free
Acetylcholinesterase = Acetylcholinesterase (Electrophorus electricus, UniProt O42275); assay: Inhibition of electric eel […] iodide as substrate preincubated for 5 mins followed by substrate addition and measured after 2 mins by Ellman's method
[1] = biological target: Indoleamine 2,3-dioxygenase 1 (Homo sapiens, UniProt P14902); assay: Inhibition of human N-terminal IDO1 expressed in Escherichia coli BL21 A1 cells using L-tryptophan as substrate measured after 30 mins by HPLC analysis
Homo sapiens [2] = organism: Homo sapiens; assay: Inhibition of amyloid beta (1 to 42) (unknown origin) aggregation by ThT fluorescence assay; settings: dose 10-50 µM
Homo sapiens [3] = organism: Homo sapiens; assay: inhibition of amyloid beta (1 to 42) (unknown origin) aggregation at 50 uM by ThT fluorescence assay relative to control
[4] = Selectivity index, ratio of IC50 for inhibition of electric eel […] iodide as substrate to IC50 for inhibition of equine serum BuChE using butyrylthiocholine iodide as substrate
[5] = Cytotoxicity against human SH-SY5Y cells assessed as reduction in cell viability after 48 hrs by MTT assay; type: cell-based; settings: read-out: LD50
[6] = biological target: Acetylcholinesterase (Electrophorus electricus) (UniProt O42275); assay: Inhibition of electric eel […] iodide as substrate at 50 uM preincubated for 5 mins followed by substrate addition and measured after 2 mins by Ellman's method relative to control; settings: time 7.0 min
Chain of Acetylcholinesterase (Electrophorus electricus) (O42275 24-633 limits assumed): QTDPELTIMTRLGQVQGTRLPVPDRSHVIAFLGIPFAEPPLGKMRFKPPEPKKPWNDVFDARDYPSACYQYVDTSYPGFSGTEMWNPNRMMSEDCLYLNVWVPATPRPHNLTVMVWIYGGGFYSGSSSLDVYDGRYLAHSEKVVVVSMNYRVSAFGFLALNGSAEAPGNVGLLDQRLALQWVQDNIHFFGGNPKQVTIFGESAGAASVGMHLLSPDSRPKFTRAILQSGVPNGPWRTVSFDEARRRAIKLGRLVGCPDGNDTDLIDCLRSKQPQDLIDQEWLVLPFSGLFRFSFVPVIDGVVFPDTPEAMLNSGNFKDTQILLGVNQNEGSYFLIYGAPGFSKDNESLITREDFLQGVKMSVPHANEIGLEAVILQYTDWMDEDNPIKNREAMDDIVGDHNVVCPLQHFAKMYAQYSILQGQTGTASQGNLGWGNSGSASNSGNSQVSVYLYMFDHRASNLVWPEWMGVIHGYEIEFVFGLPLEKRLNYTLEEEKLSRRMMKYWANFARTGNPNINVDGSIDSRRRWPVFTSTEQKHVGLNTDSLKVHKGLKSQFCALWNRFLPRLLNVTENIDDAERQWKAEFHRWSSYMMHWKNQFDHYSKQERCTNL

Chain of Cholinesterase (P81908 whole entry): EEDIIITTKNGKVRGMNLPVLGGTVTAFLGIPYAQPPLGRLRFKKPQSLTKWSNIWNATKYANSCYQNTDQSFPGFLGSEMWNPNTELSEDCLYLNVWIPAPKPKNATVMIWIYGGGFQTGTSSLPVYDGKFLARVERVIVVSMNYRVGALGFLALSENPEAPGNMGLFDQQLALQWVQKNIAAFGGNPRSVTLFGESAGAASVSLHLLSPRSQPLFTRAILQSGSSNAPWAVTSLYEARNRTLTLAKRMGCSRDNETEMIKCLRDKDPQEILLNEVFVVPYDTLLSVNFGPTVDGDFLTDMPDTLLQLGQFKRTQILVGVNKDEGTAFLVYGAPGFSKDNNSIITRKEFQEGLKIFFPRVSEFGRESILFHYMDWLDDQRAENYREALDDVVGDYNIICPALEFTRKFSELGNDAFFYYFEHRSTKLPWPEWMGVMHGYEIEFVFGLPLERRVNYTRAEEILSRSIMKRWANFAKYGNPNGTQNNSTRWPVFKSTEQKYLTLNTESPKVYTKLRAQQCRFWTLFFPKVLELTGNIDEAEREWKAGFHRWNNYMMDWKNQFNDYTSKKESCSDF
Chain of Acetylcholinesterase (O42275 whole entry): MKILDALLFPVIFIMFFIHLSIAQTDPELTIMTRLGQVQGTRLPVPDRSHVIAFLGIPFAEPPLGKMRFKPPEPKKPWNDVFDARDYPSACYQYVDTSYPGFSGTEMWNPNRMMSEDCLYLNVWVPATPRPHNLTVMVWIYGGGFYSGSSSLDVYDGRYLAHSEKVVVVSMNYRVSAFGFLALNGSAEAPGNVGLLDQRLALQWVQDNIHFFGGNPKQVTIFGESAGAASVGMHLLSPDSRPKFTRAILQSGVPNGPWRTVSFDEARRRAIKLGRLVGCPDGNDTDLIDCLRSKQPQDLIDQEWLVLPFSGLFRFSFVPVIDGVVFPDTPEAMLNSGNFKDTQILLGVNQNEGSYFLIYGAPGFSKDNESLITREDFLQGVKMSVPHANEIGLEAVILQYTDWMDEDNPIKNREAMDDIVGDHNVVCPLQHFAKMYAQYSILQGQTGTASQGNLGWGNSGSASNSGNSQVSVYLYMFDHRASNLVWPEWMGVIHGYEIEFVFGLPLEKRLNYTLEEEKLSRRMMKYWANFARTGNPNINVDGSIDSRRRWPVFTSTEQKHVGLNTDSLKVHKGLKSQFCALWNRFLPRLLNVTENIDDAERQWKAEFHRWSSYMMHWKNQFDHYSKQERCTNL
Chain of Indoleamine 2,3-dioxygenase 1 (P14902 whole entry): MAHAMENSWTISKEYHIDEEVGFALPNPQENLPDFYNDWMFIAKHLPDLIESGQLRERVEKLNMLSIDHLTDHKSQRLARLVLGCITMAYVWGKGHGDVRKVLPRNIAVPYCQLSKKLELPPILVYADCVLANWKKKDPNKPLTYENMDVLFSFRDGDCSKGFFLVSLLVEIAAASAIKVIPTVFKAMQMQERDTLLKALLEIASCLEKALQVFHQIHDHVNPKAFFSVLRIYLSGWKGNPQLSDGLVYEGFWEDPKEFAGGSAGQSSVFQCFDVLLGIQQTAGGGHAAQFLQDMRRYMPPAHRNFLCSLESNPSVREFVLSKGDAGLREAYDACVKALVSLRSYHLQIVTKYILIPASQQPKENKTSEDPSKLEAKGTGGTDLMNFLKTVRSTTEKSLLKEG

Compound | pIC50 (Cholinesterase) | pIC50 (Acetylcholinesterase) | pIC50 [1] | inhibition (Homo sapiens [2]) | inhibition (Homo sapiens [3]) [%] | Ratio IC50 [4] | CC50 at 48 h [5] [µM] | inhibition [6] [%]
Clc1ccc(C(Cn2ccnc2)OCc2nc3ccccc3s2)c(Cl)c1 (stereo not drawn) | 5.41 | 4.88 | 5.17 | Dose-dependent effect | 52.2 | 3.4 | 11.8 | 
Clc1ccc(C(Cn2ccnc2)OCc2ccc3ccccc3c2)c(Cl)c1 (stereo not drawn) | 7.05 | 5.37 | 4.65 | Dose-dependent effect | 48.3 | 47.8 | 9.8 | 
Fc1ccc(C(Cn2ccnc2)OCc2nc3ccccc3s2)cc1F (stereo not drawn) | 5.96 |  | 4.45 |  |  | > 50 |  | 7.2
Clc1ccc(COC(Cn2ccnc2)c2ccc(Cl)cc2Cl)c(Cl)c1 (stereo not drawn) [MICONAZOLE] | 5.37 | 5.62 | 5.54 |  |  | 0.6 |  | 
Brc1ccc(C(Cn2ccnc2)OCc2nc3ccccc3s2)cc1 (stereo not drawn) | 5.00 |  | 4.31 |  |  |  |  | 21
Clc1ccc(C(Cn2ccnc2)OCc2ccsc2)c(Cl)c1 (stereo not drawn) | 4.50 | 4.74 | 4.20 |  |  | 0.6 |  | 
Brc1cccc(C(Cn2ccnc2)OCc2nc3ccccc3s2)c1 (stereo not drawn) | 4.82 |  | 5.43 |  |  |  |  | 25.5
Fc1ccc(C(Cn2ccnc2)OCc2nc3ccccc3s2)cc1 (stereo not drawn) | 5.41 |  | 4.13 |  |  |  |  | 11.4
Clc1ccc(C(Cn2ccnc2)OCc2nc3ccccc3s2)cc1 (stereo not drawn) | 5.10 |  | 4.06 |  |  |  |  | 17.8
Clc1ccccc1C(Cn1ccnc1)OCc1nc2ccccc2s1 (stereo not drawn) | 4.95 | 4.23 | 4.22 |  |  |  |  | 47.4
Clc1ccc(C(Cn2ccnc2)OCc2cc3ccccc3s2)c(Cl)c1 (stereo not drawn) | 5.85 | 4.81 | 4.75 |  |  | 11 |  | 
Clc1cccc(C(Cn2ccnc2)OCc2nc3ccccc3s2)c1 (stereo not drawn) | 5.22 |  | 4.60 |  |  |  |  | 19.9
Clc1ccc(C(Cn2ccnc2)OCc2nc3ccccc3s2)cc1Cl (stereo not drawn) | 6.00 |  | 5.52 |  |  | > 50 |  | 5
Fc1ccc(C(Cn2ccnc2)OCc2nc3ccccc3s2)c(F)c1 (stereo not drawn) | 5.24 |  | 3.88 |  |  |  |  | 12.4
Clc1ccc(C(Cn2ccnc2)OCc2nc3ccccc3o2)c(Cl)c1 (stereo not drawn) | 4.75 | 4.35 | 3.87 |  |  | 2.5 |  | 
Clc1ccc(C(Cn2ccnc2)OCc2cccnc2)c(Cl)c1 (stereo not drawn) | 4.38 | 4.92 | 4.02 |  |  | 0.3 |  | 
Fc1cc(C(Cn2ccnc2)OCc2nc3ccccc3s2)ccc1Cl (stereo not drawn) | 5.21 |  | 4.24 |  |  |  |  | 22.1
Clc1ccc(C(Cn2ccnc2)OCc2cccc3ccccc23)c(Cl)c1 (stereo not drawn) | 5.40 | 4.04 | 4.31 |  |  | 22.6 |  | 
Clc1ccc(C(Cn2ccnc2)OCc2csc3c(Cl)cccc23)c(Cl)c1 (stereo not drawn) [SERTACONAZOLE] | 5.13 |  | 5.42 |  |  |  |  | 
